Results from patent publication US20230125212A1, “MEANS AND METHODS FOR ENHANCING CA[…]” (priority 2020, published 2023).

System: pilocarpine-induced epilepsy
Assay: Rat model of pilocarpine-induced epilepsy, seizure scoring by Racine scale
Type: in vivo
Settings: CBD 25 mg/kg IP; cumulative Racine score over 120 min after pilocarpine 350 mg/kg
Protocol: Objective: The aim of the current study is to assess the effect of a new CBD formulation as seizures protection in the rat model of pilocarpine-induced epilepsy.
Study variables and endpoints: The formulation is administered IP (Intraperitoneally). The animals are assessed for: • a. Mortality & morbidity—Twice daily • b. Body weight monitoring—During acclimation and before Test Item (TI) dosing (Day 1) • c. Clinical signs—Before TI dosing, continuous follow-up during the first two hours following Pilocarpine administration. Monitoring of number and duration of seizures during 120 minutes following pilocarpine administration (Seizures rating according to Racine scale). • d. Study termination—At the end of the seizures' observation (120 minutes after Pilocarpine administration) animals are sedated with Ketamine/Xylazine mixture and are subjected to pericardial perfusion with PBS and PFA 4%, brains will be removed and stored in PFA 4% until histopathological analysis
Administration of the Test Items Each Test Item and vehicle formulation are administered to tested animals, according to Table. […]
Seizure scoring: Following model induction by Pilocarpine injection, the animals are video recorded for 2 hours. The videos are analyzed and seizures rating are recorded according to the following Racine scale below. • a. […]

## C=C(C)[C@@H]1CCC(C)=C[C@H]1c1c(O)cc(CCCCC)cc1O [CBD, Cannabidiol]
  AV-Seizure Score: 29.2
